Measurements taken from patent US12371454B2, “Cyclic peptide compound having Kras inhibitory action” (priority 2019, dated 2025).
Starred links: 1 amine or outer side, 2 acyl side, 3 side chain; linkers in the order of their positions; H or OH if unused. Positions of bridges follow the written chain, without caps; N, C: chain ends. Non-standard residues stand in square brackets, D forms with d. Residues, ends and D or L forms follow the SMILES beside them. *: point of attachment. hPhe(3-Cl-4-CF3) = N[C@@H](CCc1ccc(C(F)(F)F)c(Cl)c1)C(=O)O; X23 = CN([C@@H](Cc1ccccc1OC(F)(F)F)C(=O)[*:2])[*:1]; Piperazinyl(4-(3-oxetanyl)) = C1OCC1N1CCN(*)CC1; 3Oxa8azabicyclo(3.2.1)octane = C1CC2COCC1N2*; NMePhe(4-Me) = CN[C@@H](Cc1ccc(C)cc1)C(=O)O; NMePhe(3-F) = CN[C@@H](Cc1cccc(F)c1)C(=O)O; NMedβ3hAla = C[C@H](CC(=O)[*:2])N(C)[*:1]; NMeAla(cPent) = CN[C@@H](CC1CCCC1)C(=O)O; Pro(4,4-F2) = O=C(O)[C@@H]1CC(F)(F)CN1; NMeGly(cBu) = CN[C@H](C(=O)O)C1CCC1; NMeCha = CN[C@@H](CC1CCCCC1)C(=O)O; NMeAhp(2) = CCCCC[C@H](NC)C(=O)O; NMeCba = CN[C@@H](CC1CCC1)C(=O)O; NMeChg = CN[C@H](C(=O)O)C1CCCCC1; NMeT = CN[C@H](C(=O)O)[C@@H](C)O; NMeD = CN[C@@H](CC(=O)O)C(=O)O; NMeL = CN[C@@H](CC(C)C)C(=O)O; Oxazolidin(3-yl) = C1CN(*)CO1; NMeNva = CCC[C@H](NC)C(=O)O; NMeV = CN[C@H](C(=O)O)C(C)C; NMeS = CN[C@@H](CO)C(=O)O; Morpholide = C1CN(*)CCO1; NMeA = CN[C@@H](C)C(=O)O; Piperidide = C1CCN(*)CC1; Pyrrolidide = C1CCN(*)C1; Ac5c = NC1(C(=O)O)CCCC1; Aze = O=C(O)[C@@H]1CCN1; Sar = CNCC(=O)O; Propyl = CCC*

Legend:
[1] = target: T1, Kras and SOS1 (biotin-tagged human Kras loaded with GDP, His-tagged human SOS1) (Homo sapiens, UniProt P01116, G12D); experiment: Protein-protein interaction inhibition between Kras and SOS1 (KrasGl2D-SOS PPI) using AlphaScreen; type: binding; conditions: AlphaScreen; biotin-tagged human Kras loaded with GDP, His-tagged human SOS1; read-out: KRAS G12D-SOS PPI IC50
T1 construct: made in house; host or cells: E. coli (stated for Kras only)
T1 sequence (P01116 1-188 isoform P01116-2 G12D): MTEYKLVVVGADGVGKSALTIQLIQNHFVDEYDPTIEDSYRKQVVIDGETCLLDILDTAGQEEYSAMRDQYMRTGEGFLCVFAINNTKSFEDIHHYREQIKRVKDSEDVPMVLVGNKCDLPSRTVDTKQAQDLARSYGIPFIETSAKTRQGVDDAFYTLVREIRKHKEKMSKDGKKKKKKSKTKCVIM
Outline: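 Binding between SOS1 and Kras is detected as bead-proximity luminescence: illuminate Ni-conjugated donors (680 nm), collect 520-620 nm emission from streptavidin-conjugated acceptors; Kras carries biotin and GDP loaded after purification, SOS1 carries a His tag.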

[2] = test system: Human pancreatic cancer cell line AsPC-1; experiment: Measurement of AsPC-1 cell growth inhibition (AsPC-1 CGI); type: cell-based; conditions: 96 h
Outline: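 AsPC-1 cells in 15% FBS RPMI-1640 were exposed to test compound for 96 hours at 37° C, with CellTiter-Glo as endpoint.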

SMILES	IC50 [1] [nM]	IC50 [2] [nM]
CC[C@H](C)[C@@H]1NC(=O)[C@H](CC(C)C)N(C)C(=O)C[C@@H](C(=O)N2CCCCC2)N(C)C(=O)[C@H](C(C)C)N(C)C(=O)C2(CCCC2)NC(=O)[C@@H]2CCCN2C(=O)[C@H](CCc2ccc(C(F)(F)F)c(Cl)c2)NC(=O)CN(C)C(=O)[C@H](Cc2ccccc2OC(F)(F)F)N(C)C(=O)CN(C)C(=O)CN(C)C1=O [Compound 1641] ([NMeL]I[Sar][Sar][X23][Sar][hPhe(3-Cl-4-CF3)]P[Ac5c][NMeV][NMeD]-Piperidide; lactam N-11)	8.3	100 to 500
CC[C@H](C)[C@@H]1NC(=O)[C@H](CC(C)C)N(C)C(=O)C[C@@H](C(=O)N2CCCCC2)N(C)C(=O)[C@H](C(C)C)N(C)C(=O)C2(CCCC2)NC(=O)[C@@H]2CCCN2C(=O)[C@H](CCc2ccc(C(F)(F)F)c(Cl)c2)NC(=O)CN(C)C(=O)[C@H](CC2CCCC2)N(C)C(=O)CN(C)C(=O)CN(C)C1=O [Compound 220] ([NMeL]I[Sar][Sar][NMeAla(cPent)][Sar][hPhe(3-Cl-4-CF3)]P[Ac5c][NMeV][NMeD]-Piperidide; lactam N-11)	3.1	100 to 500
CC[C@H](C)[C@@H]1NC(=O)[C@H](CC(C)C)N(C)C(=O)C[C@@H](C(=O)N2CCCCC2)N(C)C(=O)[C@H](C2CCCCC2)N(C)C(=O)C2(CCCC2)NC(=O)[C@@H]2CC(F)(F)CN2C(=O)[C@H](CCc2ccc(C(F)(F)F)c(Cl)c2)NC(=O)CN(C)C(=O)[C@H](CC2CCCCC2)N(C)C(=O)CN(C)C(=O)CN(C)C1=O [Compound 48] ([NMeL]I[Sar][Sar][NMeCha][Sar][hPhe(3-Cl-4-CF3)][Pro(4,4-F2)][Ac5c][NMeChg][NMeD]-Piperidide; lactam N-11)	0.97	20 to 50
CC[C@H](C)[C@@H]1NC(=O)[C@H](CC(C)C)N(C)C(=O)C[C@@H](C(=O)N2CCCCC2)N(C)C(=O)[C@H](C(C)C)N(C)C(=O)C2(CCCC2)NC(=O)[C@@H]2CCCN2C(=O)[C@H](CCc2ccc(C(F)(F)F)c(Cl)c2)NC(=O)CN(C)C(=O)[C@H](Cc2cccc(F)c2)N(C)C(=O)CN(C)C(=O)CN(C)C1=O [Compound 1557] ([NMeL]I[Sar][Sar][NMePhe(3-F)][Sar][hPhe(3-Cl-4-CF3)]P[Ac5c][NMeV][NMeD]-Piperidide; lactam N-11)	5.7	100 to 500
CCCOC[C@H]1C(=O)N(C)CC(=O)N[C@@H](CCc2ccc(C(F)(F)F)c(Cl)c2)C(=O)N2CCC[C@H]2C(=O)NC2(CCCC2)C(=O)N(C)[C@@H](C2CCCCC2)C(=O)N(C)[C@H](C(=O)N2CCCC2)CC(=O)N(C)[C@@H](CC(C)C)C(=O)N[C@@H]([C@@H](C)CC)C(=O)N(C)CC(=O)N(C)CC(=O)N1C [Compound 2006] ([NMeL]I[Sar][Sar][NMeS](Propyl)[Sar][hPhe(3-Cl-4-CF3)]P[Ac5c][NMeChg][NMeD]-Pyrrolidide; lactam N-11)	0.62	50 to 100
CC[C@H](C)[C@@H]1NC(=O)[C@H](CC(C)C)N(C)C(=O)C[C@@H](C(=O)N2CCOC2)N(C)C(=O)[C@H](C(C)C)N(C)C(=O)C2(CCCC2)NC(=O)[C@@H]2CCCN2C(=O)[C@H](CCc2ccc(C(F)(F)F)c(Cl)c2)NC(=O)CN(C)C(=O)[C@H](CC2CCCCC2)N(C)C(=O)[C@@H]2CCN2C(=O)[C@H](C)N(C)C1=O [Compound 1329] ([NMeL]I[NMeA][Aze][NMeCha][Sar][hPhe(3-Cl-4-CF3)]P[Ac5c][NMeV][NMeD]-{Oxazolidin(3-yl)}; lactam N-11)	1.7	100 to 500
CC[C@H](C)[C@@H]1NC(=O)[C@H](CC(C)C)N(C)C(=O)C[C@@H](C(=O)N(C)C)N(C)C(=O)[C@H](C(C)C)N(C)C(=O)C2(CCCC2)NC(=O)[C@@H]2CCCN2C(=O)[C@H](CCc2ccc(C(F)(F)F)c(Cl)c2)NC(=O)CN(C)C(=O)[C@H](Cc2ccc(C)cc2)N(C)C(=O)CN(C)C(=O)CN(C)C1=O [Compound 1867] ([NMeL]I[Sar][Sar][NMePhe(4-Me)][Sar][hPhe(3-Cl-4-CF3)]P[Ac5c][NMeV][NMeD]-NMe2; lactam N-11)	0.73	100 to 500
CC[C@H](C)[C@@H]1NC(=O)[C@H]([C@@H](C)O)N(C)C(=O)C[C@@H](C(=O)N2CCCCC2)N(C)C(=O)[C@H](C2CCCCC2)N(C)C(=O)C2(CCCC2)NC(=O)[C@@H]2CCCN2C(=O)[C@H](CCc2ccc(C(F)(F)F)c(Cl)c2)NC(=O)CN(C)C(=O)[C@H](CC2CCCCC2)N(C)C(=O)CN(C)C(=O)CN(C)C1=O [Compound 756] ([NMeT]I[Sar][Sar][NMeCha][Sar][hPhe(3-Cl-4-CF3)]P[Ac5c][NMeChg][NMeD]-Piperidide; lactam N-11)	0.58	100 to 500
CCCOC[C@H]1C(=O)N(C)CC(=O)N[C@@H](CCc2ccc(C(F)(F)F)c(Cl)c2)C(=O)N2CCC[C@H]2C(=O)NC2(CCCC2)C(=O)N(C)[C@@H](C2CCCCC2)C(=O)N(C)[C@H](C(=O)N2CCCC2)CC(=O)N(C)[C@@H](CCC)C(=O)N[C@@H]([C@@H](C)CC)C(=O)N(C)CC(=O)N(C)CC(=O)N1C [Compound 2005] ([NMeNva]I[Sar][Sar][NMeS](Propyl)[Sar][hPhe(3-Cl-4-CF3)]P[Ac5c][NMeChg][NMeD]-Pyrrolidide; lactam N-11)	0.64	50 to 100
CCCCC[C@H]1C(=O)N(C)CC(=O)N[C@@H](CCc2ccc(C(F)(F)F)c(Cl)c2)C(=O)N2CCC[C@H]2C(=O)NC2(CCCC2)C(=O)N(C)[C@@H](C2CCCCC2)C(=O)N(C)[C@H](C(=O)N2CCCCC2)CC(=O)N(C)[C@@H](CC(C)C)C(=O)N[C@@H]([C@@H](C)CC)C(=O)N(C)CC(=O)N(C)CC(=O)N1C [Compound 1846] ([NMeL]I[Sar][Sar][NMeAhp(2)][Sar][hPhe(3-Cl-4-CF3)]P[Ac5c][NMeChg][NMeD]-Piperidide; lactam N-11)	1.1	100 to 500
CC[C@H](C)[C@@H]1NC(=O)[C@H](CC(C)C)N(C)C(=O)C[C@@H](C(=O)N2CCN(C3COC3)CC2)N(C)C(=O)[C@H](C2CCCCC2)N(C)C(=O)C2(CCCC2)NC(=O)[C@@H]2CCCN2C(=O)[C@H](CCc2ccc(C(F)(F)F)c(Cl)c2)NC(=O)CN(C)C(=O)[C@H](CC2CCCCC2)N(C)C(=O)CN(C)C(=O)CN(C)C1=O [Compound 1284] ([NMeL]I[Sar][Sar][NMeCha][Sar][hPhe(3-Cl-4-CF3)]P[Ac5c][NMeChg][NMeD]-{Piperazinyl(4-(3-oxetanyl))}; lactam N-11)	0.69	100 to 500
CC[C@H](C)[C@@H]1NC(=O)[C@H](CC(C)C)N(C)C(=O)C[C@@H](C(=O)N2CCCCC2)N(C)C(=O)[C@H](CC2CCC2)N(C)C(=O)C2(CCCC2)NC(=O)[C@@H]2CCCN2C(=O)[C@H](CCc2ccc(C(F)(F)F)c(Cl)c2)NC(=O)CN(C)C(=O)[C@H](CC2CCCCC2)N(C)C(=O)[C@@H]2CCN2C(=O)[C@H](C)N(C)C1=O [Compound 1860] ([NMeL]I[NMeA][Aze][NMeCha][Sar][hPhe(3-Cl-4-CF3)]P[Ac5c][NMeCba][NMeD]-Piperidide; lactam N-11)	11	100 to 500
CC[C@H](C)[C@@H]1NC(=O)[C@H](CC(C)C)N(C)C(=O)C[C@@H](C(=O)N2CCOCC2)N(C)C(=O)[C@H](C2CCCCC2)N(C)C(=O)C2(CCCC2)NC(=O)[C@@H]2CCCN2C(=O)[C@H](CCc2ccc(C(F)(F)F)c(Cl)c2)NC(=O)CN(C)C(=O)[C@H](Cc2ccc(C)cc2)N(C)C(=O)CN(C)C(=O)CN(C)C1=O [Compound 1872] ([NMeL]I[Sar][Sar][NMePhe(4-Me)][Sar][hPhe(3-Cl-4-CF3)]P[Ac5c][NMeChg][NMeD]-Morpholide; lactam N-11)	0.65	20 to 50
CC[C@H](C)[C@@H]1NC(=O)[C@H](C2CCC2)N(C)C(=O)C[C@@H](C(=O)N2C3CCC2COC3)N(C)C(=O)[C@H](C2CCCCC2)N(C)C(=O)C2(CCCC2)NC(=O)[C@@H]2CCCN2C(=O)[C@H](CCc2ccc(C(F)(F)F)c(Cl)c2)NC(=O)CN(C)C(=O)[C@H](CC2CCCCC2)N(C)C(=O)CN(C)C(=O)CN(C)C1=O [Compound 701] ([NMeGly(cBu)]I[Sar][Sar][NMeCha][Sar][hPhe(3-Cl-4-CF3)]P[Ac5c][NMeChg][NMeD]-{3Oxa8azabicyclo(3.2.1)octane}; lactam N-11)	0.69	50 to 100
CC[C@H](C)[C@@H]1NC(=O)[C@H](CC(C)C)N(C)C(=O)C[C@@H](C)N(C)C(=O)[C@H](C(C)C)N(C)C(=O)C2(CCCC2)NC(=O)[C@@H]2CCCN2C(=O)[C@H](CCc2ccc(C(F)(F)F)c(Cl)c2)NC(=O)CN(C)C(=O)[C@H](Cc2ccc(C)cc2)N(C)C(=O)CN(C)C(=O)CN(C)C1=O [Compound 1549] (cyclo([Ac5c][NMeV][NMedβ3hAla][NMeL]I[Sar][Sar][NMePhe(4-Me)][Sar][hPhe(3-Cl-4-CF3)]P))	3.6	50 to 100
CCC[C@H]1C(=O)N[C@@H]([C@@H](C)CC)C(=O)N(C)CC(=O)N(C)CC(=O)N(C)[C@@H](CC2CCCCC2)C(=O)N(C)CC(=O)N[C@@H](CCc2ccc(C(F)(F)F)c(Cl)c2)C(=O)N2CCC[C@H]2C(=O)NC2(CCCC2)C(=O)N(C)[C@@H](C2CCCCC2)C(=O)N(C)[C@H](C(=O)N2CCCCC2)CC(=O)N1C [Compound 778] ([NMeNva]I[Sar][Sar][NMeCha][Sar][hPhe(3-Cl-4-CF3)]P[Ac5c][NMeChg][NMeD]-Piperidide; lactam N-11)	0.7	20 to 50
